From PMC6309939 (Pain, 2019)

Molecular target: human α4β3δ GABAA receptor (β3 subunit) (Homo sapiens, UniProt P28472)
Experiment: two-electrode voltage clamp in oocytes, potentiation of GABA EC10 currents
Assay type: cell-based

human α4β3δ GABAA receptor (β3 subunit), sequence (P28472 26-473): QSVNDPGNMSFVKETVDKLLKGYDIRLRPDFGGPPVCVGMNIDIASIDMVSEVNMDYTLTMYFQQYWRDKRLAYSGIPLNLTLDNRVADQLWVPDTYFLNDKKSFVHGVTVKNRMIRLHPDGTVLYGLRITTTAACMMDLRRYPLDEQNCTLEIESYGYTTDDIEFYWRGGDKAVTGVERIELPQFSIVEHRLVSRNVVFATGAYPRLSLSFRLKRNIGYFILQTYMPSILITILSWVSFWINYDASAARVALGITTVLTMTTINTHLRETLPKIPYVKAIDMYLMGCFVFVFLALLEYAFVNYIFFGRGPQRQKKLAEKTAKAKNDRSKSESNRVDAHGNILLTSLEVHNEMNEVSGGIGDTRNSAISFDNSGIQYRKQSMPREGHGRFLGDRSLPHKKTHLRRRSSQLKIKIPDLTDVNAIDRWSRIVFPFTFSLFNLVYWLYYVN
human α4β3δ GABAA receptor (β3 subunit), sequence (P48169 36-554 partner): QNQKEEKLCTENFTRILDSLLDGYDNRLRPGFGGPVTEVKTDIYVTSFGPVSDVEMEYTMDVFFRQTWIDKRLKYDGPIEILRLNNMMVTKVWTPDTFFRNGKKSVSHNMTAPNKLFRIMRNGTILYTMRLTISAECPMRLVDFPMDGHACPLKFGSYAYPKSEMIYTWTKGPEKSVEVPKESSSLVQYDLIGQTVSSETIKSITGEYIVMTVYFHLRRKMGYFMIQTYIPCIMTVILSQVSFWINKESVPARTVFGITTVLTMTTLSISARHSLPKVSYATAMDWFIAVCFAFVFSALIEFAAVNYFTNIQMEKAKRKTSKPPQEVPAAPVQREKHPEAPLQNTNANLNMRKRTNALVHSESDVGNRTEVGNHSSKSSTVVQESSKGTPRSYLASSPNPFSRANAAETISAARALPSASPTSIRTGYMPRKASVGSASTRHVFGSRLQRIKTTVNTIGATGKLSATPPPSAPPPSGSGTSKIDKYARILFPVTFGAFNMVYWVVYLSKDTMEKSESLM
human α4β3δ GABAA receptor (β3 subunit), sequence (O14764 25-452 partner): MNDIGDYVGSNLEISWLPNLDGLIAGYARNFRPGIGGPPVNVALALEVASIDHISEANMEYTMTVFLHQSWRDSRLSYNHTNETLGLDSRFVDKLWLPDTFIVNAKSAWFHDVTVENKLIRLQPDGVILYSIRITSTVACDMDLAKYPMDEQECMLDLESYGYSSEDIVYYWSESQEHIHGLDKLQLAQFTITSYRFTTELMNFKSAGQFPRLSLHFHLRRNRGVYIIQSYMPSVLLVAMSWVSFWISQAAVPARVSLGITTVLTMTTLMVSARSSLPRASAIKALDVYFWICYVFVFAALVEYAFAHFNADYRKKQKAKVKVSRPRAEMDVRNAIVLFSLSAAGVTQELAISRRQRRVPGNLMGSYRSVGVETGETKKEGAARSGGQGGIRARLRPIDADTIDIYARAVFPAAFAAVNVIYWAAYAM

For CC(=O)[C@H]1CC[C@H]2[C@@H]3CC[C@H]4C[C@H](O)CC[C@]4(C)[C@H]3CC[C@]12C [ALLO, allopregnanolone], the EC50 was 520 nM.
